Measured values as given in patent publication US20230405151A1, “USE OF IRAK4 MODULATORS FOR GENE THERAPY” (Genzyme Corporation, priority 2022, published 2023).

Target: T1, IRAK4 protein (Mus musculus, UniProt Q8R4K2)
T1 construct: from tissue; host or cells: PBMCs from blood of C57BL/6J mice
T1 sequence (Q8R4K2 1-459): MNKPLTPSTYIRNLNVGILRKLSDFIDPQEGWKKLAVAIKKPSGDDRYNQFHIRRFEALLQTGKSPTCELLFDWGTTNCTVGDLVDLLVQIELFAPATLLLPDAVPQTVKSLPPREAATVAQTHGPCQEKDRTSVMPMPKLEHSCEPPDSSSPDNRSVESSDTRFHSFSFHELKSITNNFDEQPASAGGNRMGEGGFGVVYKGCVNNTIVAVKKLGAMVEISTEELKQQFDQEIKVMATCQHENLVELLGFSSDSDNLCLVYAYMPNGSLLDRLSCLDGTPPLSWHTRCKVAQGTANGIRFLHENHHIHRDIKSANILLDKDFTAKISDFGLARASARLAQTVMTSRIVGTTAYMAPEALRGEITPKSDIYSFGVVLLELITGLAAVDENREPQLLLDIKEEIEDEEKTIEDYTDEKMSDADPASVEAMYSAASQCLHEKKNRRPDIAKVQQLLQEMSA
Experiment: In vivo mouse AAV model: IRAK4 expression in PBMC immune cell types by flow cytometry
Conditions: chow 100 mg/kg from 15 days prior to AAV; day 14; N=6
Protocol: The same experiment design was followed with n=6 mice in each group PBS group, AAV group and AAV+IRAK4 degrader PROTAC IRAK4 degrader-1 Cat. No.: HY-129966 (MedChemExpress) that was mixed with chow at 100 mg/kg and fed to mice 15 days prior to AAV injection. […] AAV capsid used in the study had LacZ transgene. All animal experiments were conducted in accordance with the Institutional Animal Care and Use Committees at Sanofi, Framingham. Submandibular bleeds were performed weekly, and necropsy was performed three weeks post AAV injection.
PBMC isolation and surface staining. 120 ul blood was collected in K2EDTA coated tubes. The blood was mixed with DBPS at 1:1 ration and pipetted into a separate tube containing Ficoll (GE17-5442-02) to ensure no mixing of the blood and Ficoll phases. The mixture was centrifuged at 2000 RPM for 25 minutes at room temperature (9 acceleration and no braking). The buffy coat containing the peripheral blood mononuclear cells (PBMCs) was collected, transferred to a new tube, and centrifuged for five minutes at 400 RCF. PBMCs were washed three times with phosphate buffered saline (PBS) containing 1% fetal bovine serum (FBS) or fetal calf serum (FCS) and counted. The PBMC cells thus obtained were stained with different antibodies to quantify percentage of different immune cell subsets in peripheral blood.
On day 14 mice were bled and PBMCs were harvested. […]

## O=C1CCC(N2C(=O)c3cccc(NCc4cn(CCCNC(=O)c5ccc(-n6cc(NC(=O)c7coc(-c8ccnc(NCC9CC9)c8)n7)c(C(F)(F)F)n6)cc5)cn4)c3C2=O)C(=O)N1 (stereo not shown) [PROTAC IRAK4 degrader-1]
  IRAK4 protein expression in all immune cell types evaluated in PBMCs (PBMCs, T cells, B cells, monocytes): reduced significantly
